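Tested at 5 concentrations; 48 h exposure; 96-well plates; endpoints linearly interpolated, else capped at highest concentration. GI50: concentration for 50% inhibition of growth.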 Calls of active or inactive are those of the source. Cut-off read from the data, not from the text of the source: active = GI50 up to about 1.1 µM and inactive = higher.
Assays:
Experiment in all cases: inhibition of tumour cell growth, NCI panel, 48 h
786-0 = test system: 786-0
NCI-H23 = test system: NCI-H23
SK-OV-3 = test system: SK-OV-3
SNB-75 = test system: SNB-75
HT-29 = test system: HT-29
A549 = test system: A549
OVCAR-4 = test system: OVCAR-4
NCI-H460 = test system: NCI-H460
MOLT-4 = test system: MOLT-4
SF-539 = test system: SF-539
NCI-H226 = test system: NCI-H226
UO-31 = test system: UO-31
HCT-116 = test system: HCT-116
UACC-257 = test system: UACC-257
CCRF-CEM = test system: CCRF-CEM
CAKI-1 = test system: CAKI-1
HCC 2998 = test system: HCC 2998

Measured: GI50

Cc1cccc2c(O)cc(=O)oc12
inactive: 786-0 > 100 µM | NCI-H23 > 100 µM | SK-OV-3 > 100 µM | SNB-75 > 100 µM | HT-29 > 100 µM | A549 > 100 µM | OVCAR-4 > 100 µM | NCI-H460 > 100 µM | MOLT-4 > 100 µM | SF-539 > 100 µM | NCI-H226 > 100 µM | UO-31 > 100 µM | HCT-116 > 100 µM | UACC-257 > 100 µM | CCRF-CEM > 100 µM

CCOC(=O)c1cc2c(cn1)[nH]c1cccc(N)c12
inactive: 786-0 > 100 µM | NCI-H23 > 100 µM | SNB-75 > 100 µM | HT-29 > 100 µM | A549 > 100 µM | CAKI-1 > 100 µM | OVCAR-4 > 100 µM | NCI-H460 > 100 µM | MOLT-4 61.5 µM | SF-539 > 100 µM | UO-31 > 100 µM | HCT-116 > 100 µM | UACC-257 > 100 µM | HCC 2998 > 100 µM | CCRF-CEM > 100 µM

CC(C)(C)C(=O)Cc1cc2c(cc1C(=O)O)S(=O)(=O)NC(C(C)(C)C)=C2
inactive: 786-0 > 100 µM | NCI-H23 > 100 µM | SK-OV-3 > 100 µM | SNB-75 > 100 µM | HT-29 > 100 µM | A549 > 100 µM | CAKI-1 > 100 µM | OVCAR-4 > 100 µM | NCI-H460 > 100 µM | MOLT-4 > 100 µM | NCI-H226 > 100 µM | UO-31 > 100 µM | HCT-116 > 100 µM | UACC-257 > 100 µM | CCRF-CEM > 100 µM

COc1ccccc1C(N)c1ccccc1 (stereo not drawn)
inactive: 786-0 > 100 µM | NCI-H23 > 100 µM | SK-OV-3 > 100 µM | SNB-75 95.9 µM | HT-29 > 100 µM | A549 > 100 µM | OVCAR-4 > 100 µM | NCI-H460 > 100 µM | MOLT-4 > 100 µM | SF-539 > 100 µM | NCI-H226 > 100 µM | UO-31 > 100 µM | HCT-116 > 100 µM | UACC-257 > 100 µM | HCC 2998 > 100 µM | CCRF-CEM > 100 µM

COc1ccc(Cc2nccc3cc(OC)c(OC)cc23)cc1
inactive: 786-0 > 100 µM | NCI-H23 37.2 µM | SK-OV-3 > 100 µM | SNB-75 33.1 µM | HT-29 67.9 µM | A549 > 100 µM | CAKI-1 33 µM | OVCAR-4 36.5 µM | NCI-H460 90.6 µM | MOLT-4 39.4 µM | SF-539 > 100 µM | UO-31 16.9 µM | HCT-116 57.4 µM | UACC-257 16.4 µM | HCC 2998 > 100 µM | CCRF-CEM 65.6 µM

CCCCn1c(-c2ccccc2)cs/c1=N\N=C1C=C(C(C)(C)C)C(=O)C(C(C)(C)C)=C1
inactive: 786-0 > 100 µM | NCI-H23 > 100 µM | HT-29 > 100 µM | A549 > 100 µM | CAKI-1 > 100 µM | OVCAR-4 > 100 µM | NCI-H460 > 100 µM | MOLT-4 > 100 µM | SF-539 > 100 µM | NCI-H226 > 100 µM | UO-31 > 100 µM | HCT-116 > 100 µM | UACC-257 > 100 µM | HCC 2998 > 100 µM | CCRF-CEM > 100 µM

CCCCCCCCCCCCCCCC[N+](C)(C)Cc1ccc(C[N+](C)(C)CCCCCCCCCCCCCCCC)cc1
inactive: 786-0 2.5 µM | NCI-H23 1.88 µM | SK-OV-3 2.62 µM | SNB-75 1.94 µM | HT-29 2.28 µM | A549 2.09 µM | CAKI-1 10.1 µM | OVCAR-4 3.23 µM | NCI-H460 2.51 µM | MOLT-4 1.78 µM | SF-539 2.02 µM | UO-31 25.8 µM | HCT-116 2.59 µM | UACC-257 3.4 µM | HCC 2998 3.72 µM | CCRF-CEM 1.46 µM

From ChEMBL document CHEMBL1201862, “PubChem BioAssay data set” (2004)
